From PubChem BioAssay (NCI)
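How tested: cells in 96-well plates exposed to compound for 48 hours at five concentrations. The concentration for full growth arrest is given as TGI.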

How the values were obtained:
Experiment in all cases: inhibition of tumour cell growth, NCI panel, 48 h
DLD-1 colon = tested on: DLD-1 colon
DMS 273 small cell lung = tested on: DMS 273 small cell lung
EKVX NSCLC = tested on: EKVX NSCLC
LOX IMVI melanoma = tested on: LOX IMVI melanoma
MALME-3M melanoma = tested on: MALME-3M melanoma
OVCAR-4 ovarian = tested on: OVCAR-4 ovarian
SF-268 CNS = tested on: SF-268 CNS
SNB-78 CNS = tested on: SNB-78 CNS
U251 CNS = tested on: U251 CNS
UACC-257 melanoma = tested on: UACC-257 melanoma
UACC-62 melanoma = tested on: UACC-62 melanoma

For `CN(Cc1ccccc1)C1(N(C)Cc2ccccc2)CC1`, the TGI (DLD-1 colon) was greater than 100 µM, the TGI (DMS 273 small cell lung) was greater than 100 µM and the TGI (EKVX NSCLC) was greater than 100 µM. For the same molecule, the TGI (LOX IMVI melanoma) was greater than 100 µM, the TGI (MALME-3M melanoma) was greater than 100 µM and the TGI (OVCAR-4 ovarian) was greater than 100 µM. For the same molecule, the TGI (SF-268 CNS) was greater than 100 µM, the TGI (SNB-78 CNS) was greater than 100 µM and the TGI (U251 CNS) was greater than 100 µM. It also gave a TGI (UACC-257 melanoma) greater than 100 µM and a TGI (UACC-62 melanoma) greater than 100 µM.
Work on `O=C1NC(=S)NC(=O)C1=Cc1ccc2ccccc2n1` yielded a TGI (DLD-1 colon) greater than 100 µM, a TGI (DMS 273 small cell lung) greater than 100 µM and a TGI (EKVX NSCLC) greater than 100 µM. For the same molecule, the TGI (LOX IMVI melanoma) was greater than 100 µM, the TGI (MALME-3M melanoma) was greater than 100 µM and the TGI (OVCAR-4 ovarian) was greater than 100 µM. For the same molecule, the TGI (SF-268 CNS) was greater than 100 µM, the TGI (SNB-78 CNS) was greater than 100 µM and the TGI (U251 CNS) was greater than 100 µM. It also gave a TGI (UACC-257 melanoma) greater than 100 µM and a TGI (UACC-62 melanoma) greater than 100 µM.
`COc1ccc(/C=C/C(C(=O)O)C(=O)O)cc1` showed a TGI (DLD-1 colon) greater than 100 µM, a TGI (DMS 273 small cell lung) greater than 100 µM and a TGI (EKVX NSCLC) greater than 100 µM. For the same molecule, the TGI (LOX IMVI melanoma) was 39.5 µM, the TGI (MALME-3M melanoma) was greater than 100 µM and the TGI (OVCAR-4 ovarian) was greater than 100 µM. It also gave a TGI (SF-268 CNS) greater than 100 µM, a TGI (SNB-78 CNS) greater than 100 µM and a TGI (U251 CNS) greater than 100 µM. It also gave a TGI (UACC-257 melanoma) greater than 100 µM and a TGI (UACC-62 melanoma) greater than 100 µM.
Work on `Cc1nn(C)c(=S)n(C)c1=O` yielded a TGI (DLD-1 colon) greater than 100 µM, a TGI (DMS 273 small cell lung) of 11 µM and a TGI (EKVX NSCLC) of 44.9 µM. The TGI (LOX IMVI melanoma) was greater than 100 µM, the TGI (MALME-3M melanoma) was 37.2 µM and the TGI (OVCAR-4 ovarian) was greater than 100 µM. The TGI (SF-268 CNS) was greater than 100 µM, the TGI (SNB-78 CNS) was greater than 100 µM and the TGI (U251 CNS) was 30.1 µM. The TGI (UACC-257 melanoma) was 11.2 µM and the TGI (UACC-62 melanoma) was greater than 100 µM.
`CC1=C(c2cc(C(=O)Nc3cccc(C(F)(F)F)c3)nc(NC#N)n2)Sc2ccccc2N1` gave a TGI (DLD-1 colon) greater than 100 µM, a TGI (DMS 273 small cell lung) greater than 100 µM and a TGI (EKVX NSCLC) greater than 100 µM. The TGI (LOX IMVI melanoma) was greater than 100 µM, the TGI (MALME-3M melanoma) was greater than 100 µM and the TGI (OVCAR-4 ovarian) was greater than 100 µM. The TGI (SF-268 CNS) was greater than 100 µM, the TGI (SNB-78 CNS) was greater than 100 µM and the TGI (U251 CNS) was greater than 100 µM. The TGI (UACC-257 melanoma) was greater than 100 µM and the TGI (UACC-62 melanoma) was greater than 100 µM.
With `COc1ccc(S(=O)(=O)N/N=C(\C)CN2C(=O)c3ccccc3C2=O)cc1` the TGI (DLD-1 colon) was greater than 100 µM, the TGI (DMS 273 small cell lung) was greater than 100 µM and the TGI (EKVX NSCLC) was greater than 100 µM. It also gave a TGI (LOX IMVI melanoma) greater than 100 µM, a TGI (MALME-3M melanoma) greater than 100 µM and a TGI (OVCAR-4 ovarian) greater than 100 µM. For the same molecule, the TGI (SF-268 CNS) was greater than 100 µM, the TGI (SNB-78 CNS) was greater than 100 µM and the TGI (U251 CNS) was greater than 100 µM. For the same molecule, the TGI (UACC-257 melanoma) was greater than 100 µM and the TGI (UACC-62 melanoma) was greater than 100 µM.
With `Cc1nn(C)c(=O)c2nn(-c3ccccc3)c(C)c12` the TGI (DLD-1 colon) was greater than 100 µM, the TGI (DMS 273 small cell lung) was greater than 100 µM and the TGI (EKVX NSCLC) was greater than 100 µM. It also gave a TGI (LOX IMVI melanoma) greater than 100 µM, a TGI (MALME-3M melanoma) greater than 100 µM and a TGI (OVCAR-4 ovarian) greater than 100 µM. The TGI (SF-268 CNS) was greater than 100 µM, the TGI (SNB-78 CNS) was greater than 100 µM and the TGI (U251 CNS) was greater than 100 µM. It also gave a TGI (UACC-257 melanoma) greater than 100 µM and a TGI (UACC-62 melanoma) greater than 100 µM.
`Cc1cccc(N2C(=O)C(=O)C(c3nc4ccccc4s3)C(=O)C2=O)c1C` gave a TGI (DLD-1 colon) greater than 100 µM, a TGI (DMS 273 small cell lung) greater than 100 µM and a TGI (EKVX NSCLC) greater than 100 µM. The TGI (LOX IMVI melanoma) was greater than 100 µM, the TGI (MALME-3M melanoma) was greater than 100 µM and the TGI (OVCAR-4 ovarian) was greater than 100 µM. It also gave a TGI (SF-268 CNS) greater than 100 µM, a TGI (SNB-78 CNS) greater than 100 µM and a TGI (U251 CNS) greater than 100 µM. It also gave a TGI (UACC-257 melanoma) greater than 100 µM and a TGI (UACC-62 melanoma) greater than 100 µM.
